Holding throughout (type): in vivo
In data set [1] the test system is green peach aphid (Myzus persicae). Description: Test C: control of green peach aphid through contact and/or systemic means, radish plant. Here is the method: (§1) Test compounds or mixtures were formulated using a solution containing 10% acetone, 90% water and 300 ppm X-77™ Spreader Lo-Foam Formula non-ionic surfactant containing alkylarylpolyoxyethylene, free fatty acids, glycols and 2-propanol (Loveland Industries, Inc. Greeley, Colo., USA). The formulated compounds or mixtures were applied in 1 mL of liquid through a SUJ2 atomizer nozzle with ⅛ JJ custom body (Spraying Systems Co. Wheaton, Ill., USA) positioned 1.27 cm (0.5 inches) above the top of each test unit. All experimental compounds in these tests were sprayed at 10 ppm replicated three times. For experimental mixtures in these tests, to obtain the desired mixture concentrations of each compound, twice the desired concentration of each of the two mixture partner compounds were mixed together in equal volumes.
For evaluating control of green peach aphid (Myzus persicae) through contact and/or systemic means, the test unit consisted of a small open container with a 12- to 15-day-old radish plant inside. This was pre-infested by placing on a leaf of the test plant 30-40 aphids on a piece of leaf excised from a culture plant (cut-leaf method). The larvae moved onto the test plant as the leaf piece desiccated. After pre-infestation, the soil of the test unit was covered with a layer of sand.
All test compounds were formulated and sprayed at 50 ppm as described for Test A and replicated three times. Test mixtures were formulated as described for Test A and replicated three times. After spraying of the formulated test compound or mixture, each test unit was allowed to dry for 1 hour and then a black, screened cap was placed on top. The test units were held for 6 days in a growth chamber at 19-21° C. and 50-70% relative humidity. Dead and total number of aphids were counted in each test unit to determine percent mortality.

Data set [2] concerns corn planthopper (Peregrinus maidis). Description: Test F: control of corn planthopper through contact and/or systemic means, corn plant (mixtures). The protocol:
as §1
For evaluating control of corn planthopper (Peregrinus maidis) through contact and/or systemic means, each test unit consisted of a small open cylindrical container with a 3- to 4 day-old corn (maize) plant (spike) inside. White sand was added to the top of the soil prior to application. Test mixtures were formulated and sprayed with 3 replications as described for Test A. After spraying, the test units were allowed to dry for 1 hour before they were post-infested with 10 to 20 corn planthoppers (18- to 20-day-old nymphs) by sprinkling them onto the sand with a salt shaker. A black, screened cap was placed on the top of each container. The test units were held for 6 days in a growth chamber at 19-21° C. and 50-70% relative humidity. Dead and total number of corn planthoppers were counted in each test unit to determine percent mortality.

The subject of data set [3] is western flower thrips (Frankliniella occidentalis Pergande). The data set can be described thus: Test G: control of western flower thrips through contact and/or systemic means, bean plant (mixtures). The protocol:
as §1
For evaluating control of the western flower thrips (Frankliniella occidentalis Pergande) through contact and/or systemic means, each test unit consisted of a small open container with a 5- to 7-day-old bean (var. Soleil) plant inside.
Test mixtures were formulated and sprayed with 3 replications as described for Test A. After spraying, the test units were allowed to dry for 1 hour, 22 to 27 adult thrips were added to each unit and then a black, screened cap was placed on top. The test units were held for 7 days at 25° C. and 45-55% relative humidity. The amount of plant damage for each test unit was rated to determine the percent plant protection.

The subject of data set [4] is diamondback moth (Plutella xylostella). Description: Test A: control of diamondback moth, foliar spray on radish plant.
Description: For evaluating control of diamondback moth (Plutella xylostella) the test unit consisted of a small open container with a 12-14-day-old radish plant inside. This was pre-infested with 10-15 neonate larvae on a piece of insect diet by use of a core sampler to remove a plug from a sheet of hardened insect diet having many larvae growing on it and transfer the plug containing larvae and diet to the test unit. The larvae moved onto the test plant as the diet plug dried out.
as §1, with “All experimental compounds in these tests were sprayed at 10 ppm replicated three times.” left out
After spraying of the formulated test compound or mixture, each test unit was allowed to dry for 1 hour and then a black, screened cap was placed on top. The test units were held for 6 days in a growth chamber at 25° C. and 70% relative humidity. Plant feeding damage was then visually assessed based on foliage consumed.

Regarding `Cc1cc(Cl)cc(C(=O)NCC2CC2)c1NC(=O)c1cc(Br)nn1-c1ncccc1Cl` [Compound 2], the “Mortality (obs)” value in data set [1] (8 ppm) was 4%; in data set [1] (50 ppm), 17%; in data set [1] (250 ppm), 76%; in data set [2] (30 ppm) it was 2%; in data set [2] (100 ppm), 10%; in data set [2] (250 ppm) it was 31%. Also, the “% protection (obs)” value is 20% in data set [3] (5 ppm); 27% in data set [3] (150 ppm); 53% in data set [3] (250 ppm); 37% in data set [4] (0.03 ppm); 77% in data set [4] (0.04 ppm); 93% in data set [4] (0.06 ppm).
Consider Imidacloprid, for which the “Mortality (obs)” value in data set [1] (0.08 ppm) came out at 5%; in data set [1] (0.15 ppm), 44%; in data set [1] (0.3 ppm), 50%; in data set [2] (0.08 ppm), 2%; in data set [2] (0.2 ppm), 10%; in data set [2] (0.8 ppm), 71%. Besides, the “% protection (obs)” value came to 27% in data set [3] (11 ppm); 40% in data set [3] (77 ppm); 90% in data set [3] (250 ppm); 73% in data set [4] (0.8 ppm); 80% in data set [4] (17 ppm); 90% in data set [4] (50 ppm).
As for Thiamethoxam, the “Mortality (obs)” value is 44% in data set [1] (0.2 ppm); 73% in data set [1] (0.4 ppm); 87% in data set [1] (0.6 ppm); 19% in data set [2] (0.2 ppm); 73% in data set [2] (0.4 ppm); 100% in data set [2] (0.6 ppm). Also, the “% protection (obs)” value in data set [3] (5 ppm) is reported as 0%; in data set [3] (70 ppm), 77%; in data set [3] (250 ppm), 100%; in data set [4] (30 ppm) it was 43%; in data set [4] (40 ppm), 73%; in data set [4] (50 ppm), 90%.

The record behind these values is US20090133318A1, “Anthranilamide insecticides” (priority 2004, published 2009).
